Where “and” joins values, the source holds several entries; their conditions need not be identical. Identical values can stand only once. ± gives the expanded uncertainty stated by the source.
Experiments:
[1] = Liquid; for mass density: Vibrating tube method
[2] = Boiling temperature at pressure P; conditions: Liquid, Ebulliometric method (Recirculating still)
[3] = refractive index (Na D-line) (dimensionless); conditions: 298.15 K; 101.33 kPa; Liquid; Standard Abbe refractometry

Work on CC1CCC(=O)O1 (stereo not given) [γ-valerolactone] yielded a mass density ([1]; 293.15 K, 186 kPa) of 1053.38 ± 1 kg/m3, a mass density ([1]; 293.15 K, 187.01 kPa) of 1053.43 ± 1 kg/m3 and a mass density ([1]; 293.15 K, 476.37 kPa) of 1053.68 ± 1 kg/m3. It also gave a mass density ([1]; 293.15 K, 977 kPa) of 1054.07 ± 1 kg/m3, a mass density ([1]; 293.15 K, 1979.3 kPa) of 1054.81 ± 1 kg/m3 and a mass density ([1]; 293.15 K, 2978.5 kPa) of 1055.47 ± 1 kg/m3. It also gave a mass density ([1]; 293.15 K, 3976.8 kPa) of 1056.08 ± 1 kg/m3, a mass density ([1]; 293.15 K, 4978.1 kPa) of 1056.65 ± 1 kg/m3 and a mass density ([1]; 298 K, 101.33 kPa) of 1049.2 ± 1.2 kg/m3. The mass density ([1]; 298.1 K, 107 kPa) was 1048.8 ± 1.2 kg/m3, the mass density ([1]; 298.16 K, 187.01 kPa) was 1048.68 ± 1 kg/m3 and the mass density ([1]; 298.16 K, 189.01 kPa) was 1048.83 ± 1 kg/m3. The mass density ([1]; 298.16 K, 480.38 kPa) was 1048.97 ± 1 kg/m3, the mass density ([1]; 298.16 K, 978 kPa) was 1049.41 ± 1 kg/m3 and the mass density ([1]; 298.16 K, 1980.3 kPa) was 1050.16 ± 1 kg/m3. The mass density ([1]; 298.16 K, 2980.5 kPa) was 1050.86 ± 1 kg/m3, the mass density ([1]; 298.16 K, 3977.8 kPa) was 1051.48 ± 1 kg/m3 and the mass density ([1]; 298.16 K, 4976.1 kPa) was 1052.05 ± 1 kg/m3. For the same compound, the “vapor or sublimation pressure” value ([1]; 350.18 K, Closed cell (Static) method) was 1.2 ± 0.2 kPa, the mass density ([1]; 353.15 K, 187.01 kPa) was 996.384 ± 1 kg/m3 and the mass density ([1]; 353.15 K, 190.01 kPa) was 996.734 ± 1 kg/m3. It also gave a mass density ([1]; 353.15 K, 194.01 kPa) of 997.077 ± 1 kg/m3, a mass density ([1]; 353.15 K, 198.02 kPa) of 997.127 ± 1 kg/m3 and a mass density ([1]; 353.15 K, 484.38 kPa) of 996.824 ± 1.1 kg/m3. For the same compound, the mass density ([1]; 353.15 K, 492.39 kPa) was 997.272 ± 1.1 kg/m3, the mass density ([1]; 353.15 K, 979.01 kPa) was 997.655 ± 1.1 kg/m3 and the mass density ([1]; 353.15 K, 984.01 kPa) was 997.904 ± 1 kg/m3. It also gave a mass density ([1]; 353.15 K, 985.01 kPa) of 997.898 ± 1.1 kg/m3, a mass density ([1]; 353.15 K, 1981.3 kPa) of 998.74 ± 1 kg/m3 and a mass density ([1]; 353.15 K, 1987.3 kPa) of 998.832 ± 1 kg/m3. For the same compound, the mass density ([1]; 353.15 K, 1988.3 kPa) was 998.837 ± 1 kg/m3, the mass density ([1]; 353.15 K, 2979.5 kPa) was 999.633 ± 1 kg/m3 and the mass density ([1]; 353.15 K, 2985.5 kPa) was 999.73 ± 1 kg/m3 and 999.724 ± 1 kg/m3. It also gave a mass density ([1]; 353.15 K, 3979.8 kPa) of 1000.43 ± 1 kg/m3, a mass density ([1]; 353.15 K, 3983.8 kPa) of 1000.53 ± 1 kg/m3 and a mass density ([1]; 353.15 K, 3986.8 kPa) of 1000.53 ± 1 kg/m3. For the same compound, the mass density ([1]; 353.15 K, 4978.1 kPa) was 1001.2 ± 1 kg/m3, the mass density ([1]; 353.15 K, 4983.1 kPa) was 1001.29 ± 1 kg/m3 and the mass density ([1]; 353.15 K, 4984.1 kPa) was 1001.29 ± 1 kg/m3. It also gave a mass density ([1]; 353.16 K, 188.01 kPa) of 997.169 ± 1 kg/m3, a mass density ([1]; 353.16 K, 489.39 kPa) of 997.314 ± 1 kg/m3 and a mass density ([1]; 393.15 K, 180 kPa) of 958.067 ± 1 kg/m3. For the same compound, the mass density ([1]; 393.15 K, 182 kPa) was 958.857 ± 1 kg/m3 and 958.463 ± 1 kg/m3, the mass density ([1]; 393.15 K, 486.38 kPa) was 958.065 ± 1 kg/m3 and the mass density ([1]; 393.15 K, 491.39 kPa) was 958.888 ± 1 kg/m3. For the same compound, the mass density ([1]; 393.15 K, 978 kPa) was 959.43 ± 1.1 kg/m3, the mass density ([1]; 393.15 K, 984.01 kPa) was 959.712 ± 1 kg/m3 and the mass density ([1]; 393.15 K, 1981.3 kPa) was 960.847 ± 1 kg/m3. It also gave a mass density ([1]; 393.15 K, 1985.3 kPa) of 960.883 ± 1 kg/m3, a mass density ([1]; 393.15 K, 2980.5 kPa) of 961.927 ± 1 kg/m3 and a mass density ([1]; 393.15 K, 2984.5 kPa) of 961.921 ± 1 kg/m3. It also gave a mass density ([1]; 393.15 K, 3978.8 kPa) of 962.917 ± 1 kg/m3, a mass density ([1]; 393.15 K, 3981.8 kPa) of 962.913 ± 1 kg/m3 and a mass density ([1]; 393.15 K, 4977.1 kPa) of 963.866 ± 1 kg/m3. The mass density ([1]; 393.15 K, 4979.1 kPa) was 963.861 ± 1 kg/m3, the mass density ([1]; 393.16 K, 203.03 kPa) was 958.939 ± 1 kg/m3 and the mass density ([1]; 433.14 K, 184 kPa) was 918.984 ± 1 kg/m3. For the same compound, the mass density ([1]; 433.15 K, 181 kPa) was 918.395 ± 1 kg/m3, the mass density ([1]; 433.15 K, 492.39 kPa) was 919.562 ± 1 kg/m3 and the mass density ([1]; 433.15 K, 1984.3 kPa) was 921.775 ± 1 kg/m3. It also gave a mass density ([1]; 433.15 K, 2984.5 kPa) of 923.091 ± 1 kg/m3, a mass density ([1]; 433.15 K, 3983.8 kPa) of 924.314 ± 1 kg/m3 and a mass density ([1]; 433.15 K, 4980.1 kPa) of 925.496 ± 1 kg/m3. The mass density ([1]; 433.16 K, 491.39 kPa) was 919.299 ± 1 kg/m3, the mass density ([1]; 433.16 K, 982.01 kPa) was 920.309 ± 1 kg/m3 and the mass density ([1]; 453.14 K, 183 kPa) was 898.494 ± 1 kg/m3. It also gave a mass density ([1]; 453.15 K, 199.02 kPa) of 898.908 ± 1 kg/m3, a mass density ([1]; 453.15 K, 490.39 kPa) of 898.859 ± 1 kg/m3 and a mass density ([1]; 453.15 K, 983.01 kPa) of 900.059 ± 1 kg/m3. For the same compound, the mass density ([1]; 453.15 K, 1982.3 kPa) was 901.6 ± 1 kg/m3, the mass density ([1]; 453.15 K, 2985.5 kPa) was 903.051 ± 1 kg/m3 and the mass density ([1]; 453.15 K, 3983.8 kPa) was 904.412 ± 1 kg/m3. The mass density ([1]; 453.15 K, 4981.1 kPa) was 905.731 ± 1 kg/m3, the “Boiling temperature at pressure P” value ([2]; 0.58 kPa) was 65.0 ± 6.3 °C and the “Boiling temperature at pressure P” value ([2]; 1.14 kPa) was 77.5 ± 5.7 °C. For the same compound, the “Boiling temperature at pressure P” value ([2]; 1.49 kPa) was 83.04 ± 3.9 °C, the “Boiling temperature at pressure P” value ([2]; 1.86 kPa) was 87.47 ± 3 °C and the “Boiling temperature at pressure P” value ([2]; 2.49 kPa) was 93.77 ± 2.1 °C. The “Boiling temperature at pressure P” value ([2]; 4.37 kPa) was 106.5 ± 1.3 °C, the “Boiling temperature at pressure P” value ([2]; 8.66 kPa) was 123.7 ± 1.1 °C and the “Boiling temperature at pressure P” value ([2]; 10.61 kPa) was 129.4 ± 0.8 °C. For the same compound, the “Boiling temperature at pressure P” value ([2]; 11.92 kPa) was 132.8 ± 0.6 °C, the “Boiling temperature at pressure P” value ([2]; 16.51 kPa) was 142.2 ± 0.6 °C and the “Boiling temperature at pressure P” value ([2]; 20.17 kPa) was 148.1 ± 0.5 °C. For the same compound, the “Boiling temperature at pressure P” value ([2]; 27.32 kPa) was 157.78 ± 0.35 °C, the “Boiling temperature at pressure P” value ([2]; 35.64 kPa) was 166.5 ± 0.3 °C and the “Boiling temperature at pressure P” value ([2]; 43.21 kPa) was 173.18 ± 0.23 °C. For the same compound, the “Boiling temperature at pressure P” value ([2]; 61.04 kPa) was 185.72 ± 0.2 °C, the “Boiling temperature at pressure P” value ([2]; 82.18 kPa) was 197.04 ± 0.18 °C and the refractive index [3] was 1.4316 ± 0.0012.

From the NIST ThermoML archive (doi:10.1021/acs.jced.5b00724)
